According to patent publication US20100125059A1, “1-BIARYLAZETIDINONE DERIVATIVE” (Teijin Pharma Limited, priority 2007, published 2010):
Like-named read-outs stand apart in the source and are kept apart here.

Tested on: hamsters fed a high cholesterol diet
Assay: Measurement of lipid lowering effect in hamsters fed a high cholesterol diet
Type: in vivo, Male Golden Syrian hamsters
Details: Mesocricetus auratus, po, 168 h, gavage once daily, 7 days
Procedure: Male Golden Syrian hamsters are divided into groups each consisting of 6 animals and fed a controlled high cholesterol diet (CE-2 containing 0.5% cholesterol; CLEA Japan, Inc.) for 28 days at most. From the start of feeding of the high cholesterol diet, the test compounds are administered by gavage once daily. For the administration, 0.2 mL of corn oil alone per 100 g (control group) or a solution (or suspension) of the test compound in corn oil at a dose of 0.01 to 10 mg/kg was given. At the same time, a group fed with a normal diet during the same study period is handled as a normal group. 4 hours after the last administration, whole blood is collected from the abdominal aorta under light anesthesia with ether and serum is separated from the blood. Further, livers are harvested, wet liver weights are measured, and part (about 0.5 g) of the harvested livers are extracted and weighed. 2-propanol in an amount 4 times the weight of the extracted livers are added, the resulted mixtures are homogenized, and the centrifuged supernatant are recovered and used as liver-derived samples.
Serum and liver TC concentrations are determined by an enzyme method using L-type Wako CHO•H (Wako Pure Chemical Industries Ltd.) or Cholestest CHO (Daiichi Pure Chemicals Co., Ltd.). Serum TG concentrations are determined by an enzyme method using L-type Wako TG•H (Wako Pure Chemical Industries Ltd.) or Autosera S TG-N (Daiichi Pure Chemicals Co., Ltd.) and a free glycerine elimination method. LDL-C concentrations are determined by a direct method using L-type Wako LDL-C•M (Wako Pure Chemical Industries Ltd.) or Cholestest LDL (Daiichi Pure Chemicals Co., Ltd.). Human serum was commonly used as a sample for the calibration curve for determinations of serum and liver TC concentrations, serum TG concentration, and serum LDL-C concentration. The effect of the test compound is shown by a suppression rate (%) of an increase in serum TC concentration due to feeding of the high cholesterol diet, a serum TG lowering rate (%), a suppression rate (%) of an increase in serum LDL-C concentration due to feeding of the high cholesterol diet, and a suppression rate (%) of an increase in liver TC concentration due to feeding of the high cholesterol diet calculated in accordance with the following equations.
In the Equation 2, A is the control group, B is the test compound group, and C is the normal group.
In the Equation 3, A is the control group, B is the test compound group, and C is the normal group.
In the Equation 4, A is the control group, B is the test compound group, and C is the normal group.
In the Equation 5, A is the control group, and B is the test compound group.
The following results were obtained from the study by this method on the effects of lowering serum TC, LDL-C, and TG, and liver TC in the hamsters fed with a high cholesterol diet which were given the test compounds for 7 days.
The compounds in which pyridyl of compound of example 51 and 55 was exchanged for phenyl, were used as comparative compound 1 and 2, respectively. In the same method as Example 112, the suppression rate (%) of an increase in serum TC concentration of comparative compound 1 and 2 were calculated.

[1] = read-out: serum TC lowering effect (suppression rate of an increase in serum TC concentration)
[2] = read-out: serum LDL-C lowering effect (suppression rate of an increase in serum LDL-C concentration)
[3] = read-out: serum TG lowering effect (serum TG lowering rate)
[4] = read-out: liver TC lowering effect (suppression rate of an increase in liver TC concentration)

SMILES	inhibition in vivo at 0.01 mg/kg [1] [%]	inhibition in vivo at 0.1 mg/kg [2] [%]	inhibition in vivo at 0.1 mg/kg [1] [%]	further results
Cc1cncc(-c2ccc(N3C(=O)[C@H](SC[C@H](O)c4ccc(F)cc4)[C@H]3c3ccc(O)cc3)cc2)c1 [Example 68, (3R,4R)-3-[(2R)-2-(4-fluorophenyl)-2-hydroxyethylthio]-4-(4-hydroxyphenyl)-1-[4-(5-methylpyridin-3-yl)phenyl]azetidin-2-one]	≥ 30	≥ 50	–	–
Cc1cncc(-c2ccc(N3C(=O)[C@H](SC[C@H](O)c4ccc(F)cc4)[C@H]3c3ccc(O)cc3O)cc2)c1 [Example 93, (3R,4R)-3-[(2R)-2-(4-fluorophenyl)-2-hydroxyethylthio]-4-(2,4-dihydroxyphenyl)-1-[4-(5-methylpyridin-3-yl)phenyl]azetidin-2-one]	≥ 30	–	–	inhibition in vivo at 0.01 mg/kg [2]: ≥ 30%; inhibition in vivo at 0.1 mg/kg [3]: ≥ 20%
Cc1cncc(-c2ccc(N3C(=O)[C@H](SC[C@H](O)c4ccc(Cl)cc4)[C@H]3c3ccc(O)cc3O)cc2)c1 [Example 97, (3R,4R)-3-[(2R)-2-(4-chlorophenyl)-2-hydroxyethylthio]-4-(2,4-dihydroxyphenyl)-1-[4-(5-methylpyridin-3-yl)phenyl]azetidin-2-one]	–	≥ 50	≥ 50	–
O=C1[C@H](SC[C@H](O)c2ccc(Cl)cc2O)[C@@H](c2ccc(O)cc2)N1c1ccc(-c2cccnc2)cc1 [Example 89, (3R,4R)-3-[(2R)-2-(4-chloro-2-hydroxyphenyl)-2-hydroxyethylthio]-4-(4-hydroxyphenyl)-1-[4-(pyridin-3-yl)phenyl]azetidin-2-one]	–	≥ 50	≥ 50	–
Cc1cc(O)ccc1[C@@H]1[C@@H](SC[C@H](O)c2ccc(F)cc2)C(=O)N1c1ccc(-c2cncc(C#N)c2)cc1 [Example 80, 5-(4-{(3R,4R)-3-[(2R)-2-(4-fluorophenyl)-2-hydroxyethylthio]-4-(4-hydroxy-2-methylphenyl)-2-oxoazetidinyl}phenyl)pyridine-3-carbonitrile]	–	≥ 50	≥ 50	–
O=C1[C@H](SC[C@H](O)c2ccc(Cl)c(F)c2)[C@@H](c2ccc(O)cc2)N1c1ccc(-c2cncc(F)c2)cc1 [Example 82, (3R,4R)-3-[(2R)-2-(4-chloro-3-fluorophenyl)-2-hydroxyethylthio]-1-[4-(5-fluoropyridin-3-yl)phenyl]-4-(4-hydroxyphenyl)azetidin-2-one]	–	≥ 50	≥ 50	–
O=C1[C@H](SC[C@H](O)c2ccc(F)cc2)[C@@H](c2ccc(O)cc2O)N1c1ccc(-c2cccnc2)cc1 [Example 2, (3R,4R)-3-[(2R)-2-(4-fluorophenyl)-2-hydroxyethylthio]-4-(2,4-dihydroxyphenyl)-1-[4-(pyridin-3-yl)phenyl]azetidin-2-one]	≥ 30	–	–	inhibition in vivo at 0.01 mg/kg [4]: ≥ 30%
O=C1[C@H](SC[C@H](O)c2ccc(Cl)cc2)[C@@H](c2ccc(O)cc2O)N1c1ccc(-c2cncc(F)c2)cc1 [Example 72, (3R,4R)-3-[(2R)-2-(4-chlorophenyl)-2-hydroxyethylthio]-4-(2,4-dihydroxyphenyl)-1-[4-(5-fluoropyridin-3-yl)phenyl]azetidin-2-one]	–	≥ 50	≥ 50	–
O=C1[C@H](SC[C@H](O)c2ccc(F)cc2)[C@@H](c2ccc(O)cc2)N1c1ccc(-c2cnccn2)cc1 [Example 53, (3R,4R)-3-[(2R)-2-(4-fluorophenyl)-2-hydroxyethylthio]-4-(4-hydroxyphenyl)-1-[4-(pyrazin-2-yl)phenyl]azetidin-2-one]	–	≥ 50	–	–
O=C1[C@H](SC[C@H](O)c2ccc(F)cc2F)[C@@H](c2ccc(O)cc2)N1c1ccc(-c2cccnc2)cc1 [Example 30, (3R,4R)-3-[(2R)-2-(2,4-difluorophenyl)-2-hydroxyethylthio]-4-(4-hydroxyphenyl)-1-[4-(pyridin-3-yl)phenyl]azetidin-2-one]	–	≥ 50	≥ 50	inhibition in vivo at 0.1 mg/kg [4]: ≥ 50%
Cc1cc(O)ccc1[C@@H]1[C@@H](SC[C@H](O)c2ccc(F)cc2)C(=O)N1c1ccc(-c2cncc(F)c2)cc1 [Example 74, (3R,4R)-3-[(2R)-2-(4-fluorophenyl)-2-hydroxyethylthio]-1-[4-(5-fluoropyridin-3-yl)phenyl]-4-(4-hydroxy-2-methylphenyl)azetidin-2-one]	≥ 30	≥ 50	–	inhibition in vivo at 0.01 mg/kg [4]: ≥ 30%; inhibition in vivo at 0.1 mg/kg [4]: ≥ 50%
O=Cc1cncc(-c2ccc(N3C(=O)[C@H](SC[C@H](O)c4ccc(F)cc4)[C@H]3c3ccc(O)cc3)cc2)c1 [Example 71, 5-(4-{(3R,4R)-3-[(2R)-2-(4-fluorophenyl)-2-hydroxyethylthio]-4-(4-hydroxyphenyl)-2-oxoazetidinyl}phenyl)pyridine-3-carbaldehyde]	–	≥ 50	≥ 50	–
O=C1[C@H](SC[C@H](O)c2ccc(Cl)cc2)[C@@H](c2ccc(O)cc2O)N1c1ccc(-c2cncc(C(F)(F)F)c2)cc1 [Example 75, (3R,4R)-3-[(2R)-2-(4-chlorophenyl)-2-hydroxyethylthio]-4-(2,4-dihydroxyphenyl)-1-[4-(5-trifluoromethylpyridin-3-yl)phenyl]azetidin-2-one]	–	–	–	inhibition in vivo at 0.01 mg/kg [4]: ≥ 30%; inhibition in vivo at 0.01 mg/kg [2]: ≥ 30%; inhibition in vivo at 0.1 mg/kg [4]: ≥ 50%; inhibition in vivo at 0.1 mg/kg [3]: ≥ 20%
O=C1[C@H](SC[C@H](O)c2ccc(Cl)cc2)[C@@H](c2ccc(O)cc2)N1c1ccc(-c2cncc(F)c2)cc1 [Example 70, (3R,4R)-3-[(2R)-2-(4-chlorophenyl)-2-hydroxyethylthio]-1-[4-(5-fluoropyridin-3-yl)phenyl]-4-(4-hydroxyphenyl)azetidin-2-one]	≥ 30	–	–	inhibition in vivo at 0.01 mg/kg [2]: ≥ 30%; inhibition in vivo at 0.1 mg/kg [4]: ≥ 50%
N#Cc1ncc(-c2ccc(N3C(=O)[C@H](SC[C@H](O)c4ccc(F)cc4)[C@H]3c3ccc(O)cc3)cc2)cn1 [Example 103, 5-(4-{(3R,4R)-3-[(2R)-2-(4-fluorophenyl)-2-hydroxyethylthio]-4-(4-hydroxyphenyl)-2-oxoazetidinyl}phenyl)pyrimidine-2-carbonitrile]	–	–	–	inhibition in vivo at 0.1 mg/kg [3]: ≥ 20%
O=C1[C@H](SC[C@H](O)c2ccc(Cl)cc2)[C@@H](c2ccc(O)cc2O)N1c1ccc(-c2cccnc2)cc1 [Example 62, (3R,4R)-3-[(2R)-2-(4-chlorophenyl)-2-hydroxyethylthio]-4-(2,4-dihydroxyphenyl)-1-[4-(pyridin-3-yl)phenyl]azetidin-2-one]	–	≥ 50	≥ 50	–
O=C1[C@H](SC[C@H](O)c2ccc(F)cc2)[C@@H](c2ccc(O)cc2O)N1c1ccc(-c2cncc(C(F)(F)F)c2)cc1 [Example 76, (3R,4R)-3-[(2R)-2-(4-fluorophenyl)-2-hydroxyethylthio]-4-(2,4-dihydroxyphenyl)-1-[4-(5-trifluoromethylpyridin-3-yl)phenyl]azetidin-2-one]	≥ 30	–	–	–
O=C1[C@H](SC[C@H](O)c2ccc(Cl)cc2)[C@@H](c2ccc(O)cc2)N1c1ccc(-c2cnccn2)cc1 [Example 104, (3R,4R)-3-[(2R)-2-(4-chlorophenyl)-2-hydroxyethylthio]-4-(4-hydroxyphenyl)-1-[4-(pyrazin-2-yl)phenyl]azetidin-2-one]	≥ 30	–	–	inhibition in vivo at 0.01 mg/kg [2]: ≥ 30%; inhibition in vivo at 0.1 mg/kg [4]: ≥ 50%
